Source: patent publication US9249132B2, “Substituted bicyclic aromatic compounds as S-nitrosoglutathione reductase inhibitors” (Nivalis Therapeutics, Inc., priority 2010, dated 2016)

What was measured:
[1] = system: ovalbumin (OVA)-induced asthma; assay: Mouse model of ovalbumin (OVA)-induced asthma, eosinophil infiltrate in BALF; format: in vivo; details: three oral doses of 10 mg/kg at 48 h, 24 h, and 1 h prior to assessment; p<0.05
Experimental: A mouse model of ovalbumin (OVA)-induced asthma was used to screen GSNOR inhibitors for efficacy against methacholine (MCh)-induced bronchoconstriction/airway hyper-responsiveness. This is a widely used and well characterized model that presents with an acute, allergic asthma phenotype with similarities to human asthma. Efficacy of GSNOR inhibitors was assessed using a protocol in which GSNOR inhibitors were administered after OVA sensitization and airway challenge, and prior to challenge with MCh. Bronchoconstriction in response to challenge with increasing doses of MCh was assessed using whole body plethysmography (Penh; Buxco). The amount of eosinophil infiltrate into the bronchoaveolar lavage fluid (BALF) was also determined as a measure of lung inflammation. […]
In vivo airway responsiveness to methacholine was measured 24 h after the last OVA challenge in conscious, freely moving, spontaneously breathing mice with whole body plethysmography using a Buxco chamber (Wilmington, N.C.). […] The degree of bronchoconstriction was expressed as enhanced pause (Penh), a calculated dimensionless value, which correlates with the measurement of airway resistance, impedance, and intrapleural pressure in the same mouse. Penh readings were taken and averaged for 4 min. after each nebulization challenge. […]

GSNOR = target: T1, GSNOR (Homo sapiens, UniProt P11766); assay: GSNOR assay (inhibition of GSNOR activity, change in 340 nm absorbance); format: biochemical; details: 100 mM NaPO4 pH 7.4, 0.240 mM GSNO, 0.300 mM NADH, 0.5 μg/mL GSNO Reductase, 1% DMSO, 25° C.
T1 construct: made in house; host or cells: E. coli
T1 sequence (P11766 whole entry): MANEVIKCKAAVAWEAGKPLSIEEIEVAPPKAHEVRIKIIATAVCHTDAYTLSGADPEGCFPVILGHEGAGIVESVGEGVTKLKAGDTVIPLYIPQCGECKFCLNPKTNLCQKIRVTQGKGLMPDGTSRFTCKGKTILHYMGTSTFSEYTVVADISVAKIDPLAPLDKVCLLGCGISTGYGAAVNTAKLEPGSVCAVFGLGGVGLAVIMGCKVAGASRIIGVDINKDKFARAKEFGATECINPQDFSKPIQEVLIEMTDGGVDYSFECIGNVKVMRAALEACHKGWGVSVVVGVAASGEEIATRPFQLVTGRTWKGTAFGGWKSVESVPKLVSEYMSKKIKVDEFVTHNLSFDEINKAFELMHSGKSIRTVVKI
Experimental: Various compounds were tested in vitro for their ability to inhibit GSNOR activity.
GSNOR expression and purification is described in Biochemistry 2000, 39, 10720-10729.
GSNOR Fermentation: Pre-cultures were grown from stabs of a GSNOR glycerol stock in 2XYT media containing 100 ug/ml ampicillin after an overnight incubation at 37° C. Cells were then added to fresh 2XYT (4 L) containing ampicillin and grown to an OD (A600) of 0.6-0.9 at 37° C. before induction. GSNOR expression was induced with 0.1% arabinose in an overnight incubation at 20° C.
GSNOR Purification: E. coli cell paste was lysed by nitrogen cavitation and the clarified lysate purified by Ni affinity chromatography on an AKTA FPLC (Amersham Pharmacia). The column was eluted in 20 mM Tris pH 8.0/250 mM NaCl with a 0-500 mM imidazole gradient. Eluted GSNOR fractions containing the Smt-GSNOR fusion were digested overnight with Ulp-1 at 4° C. to remove the affinity tag then re-run on the Ni column under the same conditions. GSNOR was recovered in the flowthrough fraction and for crystallography is further purified by Q-Sepharose and Heparin flowthrough chromatography in 20 mM Tris pH 8.0, 1 mM DTT, 10 uM ZnSO4.
GSNOR Assay: GSNO and enzyme/NADH Solutions are made up fresh each day. The solutions are filtered and allowed to warm to room temperature. GSNO solution: 100 mM NaPO4 (pH 7.4), 0.480 mM GSNO. 396 μL of GSNO Solution is added to a cuvette followed by 8 μL of test compound in DMSO (or DMSO only for full reaction control) and mixed with the pipette tip. Compounds to be tested are made up at a stock concentration of 10 mM in 100% DMSO. 2 fold serial dilutions are done in 100% DMSO. 8 μL of each dilution are added to an assay so that the final concentration of DMSO in the assay is 1%. The concentrations of compounds tested range from 100 to 0.003 μM. Enzyme/NADH solution: 100 mM NaPO4 (pH 7.4), 0.600 mM NADH, 1.0 μg/mL GSNO Reductase. 396 μL of the Enzyme/NADH solution is added to the cuvette to start the reaction. The cuvette is placed in the Cary 3E UV/Visible Spectrophotometer and the change in 340 nm absorbance/min at 25° C. is recorded for 3 minutes. The assays are done in triplicate for each compound concentration. IC50's for each compound are calculated using the standard curve analysis in the Enzyme Kinetics Module of SigmaPlot.
Final assay conditions: 100 mM NaPO4, pH 7.4, 0.240 mM GSNO, 0.300 mM NADH, 0.5 μg/mL GSNO Reductase, and 1% DMSO. Final volume: 800 μL/cuvette.

SMILES: O=C(O)c1ccc(-c2ccc3cc(O)ccc3c2)c(Cl)c1 [Example 1, 3-chloro-4-(6-hydroxynaphthalen-2-yl)benzoic acid]
- decrease of eosinophil infiltration in BAL, of vehicle control [1]: 44%
- IC50 (GSNOR): < 50 nM
